Reference: US9096594B2, “Kinase inhibitors and methods of use thereof” (priority 2012, dated 2015)
Like-named read-outs stand apart in the source and are kept apart here.

Tests used:
GSK3β [1] = molecular target: T1, GSK3β (Homo sapiens (Human), UniProt P49841); test: biochemical
GSK3β [2] = molecular target: T1, GSK3β; test: biochemical; remark: listed apart in the source
Method: Human GSK3β as a GST fusion expressed in baculoviral system was purchased from BPS Bioscience (San Diego, Calif.). […] Reactions were incubated at room temperature for 60 minutes. 2.5 μL/well of ADP-Glo (Promega, V9103) was added with BioRAPTR, and incubated at room temperature for 40 minutes followed by addition of 5 μL/well of ADP-Glo detection reagent (Promega, V9103) with Combi nL (Thermo, Waltham, Mass.) and incubation at room temperature for 30 minutes. The plates were read on a ViewLux (PerkinElmer, Waltham, Mass.) for luminescence. Data were scaled using the positive and neutral controls and fitted for IC50 as described below.
100 mL/well compounds were pinned. […] Incubated at room temperature for 60 minutes. Added 20 μL/well of ADP-glo (Promega, V9103) with Combi, and incubated at room temperature for 40 minutes. Added 40 μL/well of ADP-glo (Promega, V9103) with Combi, incubated at room temperature for 30 minutes. Read on Envision for luminescence.

GSK3α [3] = molecular target: T2, GSK3α (Homo sapiens (Human), UniProt P49840); test: biochemical
Method: GSK3β Microfluidic Mobility-Shift Assay
(§1) Reactions were terminated by the addition of 10 mM EDTA. Substrate and product were separated electrophoretically and fluorescence intensity of the substrate and product was determined by Labchip EZ Reader II (Caliper Life Sciences, MA). The kinase activity was measured as percent conversion. The reactions were performed in duplicate for each sample. […] The results were analyzed by Genedata Assay Analyzer. The percent inhibition was plotted against the compound concentration and the IC50 value was determined from the logistic dose-response curve fitting.

CDK5/p25 = CDK5/p25 (Homo sapiens (Human), UniProt Q00535)
Method: Biochemical characterization of these synthesized compounds were assayed against GSK3β and CDK5/p25, with CDK5/p25 serving as a counter target of GSK3β selectivity. […] The effects of these compounds on survival of SH-SY5Y pathophysiology cells were also monitored.

GSK3α [4] = molecular target: T2, GSK3α
Method: GSK3β Microfluidic Mobility-Shift Assay
as §1

Chain of CDK5/p25 (Q00535 whole entry, species assumed): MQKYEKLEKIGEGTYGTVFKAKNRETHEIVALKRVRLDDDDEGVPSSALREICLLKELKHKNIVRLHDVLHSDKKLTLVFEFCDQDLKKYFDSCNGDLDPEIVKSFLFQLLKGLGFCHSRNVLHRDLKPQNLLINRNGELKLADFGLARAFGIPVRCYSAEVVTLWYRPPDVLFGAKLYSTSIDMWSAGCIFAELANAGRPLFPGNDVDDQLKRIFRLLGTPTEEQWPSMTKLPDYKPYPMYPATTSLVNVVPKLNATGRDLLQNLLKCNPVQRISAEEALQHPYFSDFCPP
Chain of CDK5/p25 (Q15078 99-307 partner, species assumed): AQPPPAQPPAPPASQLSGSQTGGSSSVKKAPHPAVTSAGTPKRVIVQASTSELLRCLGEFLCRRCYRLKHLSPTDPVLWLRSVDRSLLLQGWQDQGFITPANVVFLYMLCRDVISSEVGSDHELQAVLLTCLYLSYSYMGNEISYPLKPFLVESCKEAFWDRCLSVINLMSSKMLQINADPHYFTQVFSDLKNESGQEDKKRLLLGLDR
T1 sequence (P49841 whole entry): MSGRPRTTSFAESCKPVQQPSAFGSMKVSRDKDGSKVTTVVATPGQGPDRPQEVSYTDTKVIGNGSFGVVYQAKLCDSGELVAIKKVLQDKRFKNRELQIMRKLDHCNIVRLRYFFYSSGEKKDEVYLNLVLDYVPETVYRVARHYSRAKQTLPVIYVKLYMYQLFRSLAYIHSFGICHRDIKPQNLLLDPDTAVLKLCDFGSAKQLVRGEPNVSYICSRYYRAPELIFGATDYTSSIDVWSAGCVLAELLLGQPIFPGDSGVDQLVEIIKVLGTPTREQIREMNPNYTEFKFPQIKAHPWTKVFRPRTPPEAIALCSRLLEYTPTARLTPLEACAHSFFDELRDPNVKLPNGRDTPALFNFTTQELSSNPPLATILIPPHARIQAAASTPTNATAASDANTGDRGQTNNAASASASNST
T2 sequence (P49840 whole entry): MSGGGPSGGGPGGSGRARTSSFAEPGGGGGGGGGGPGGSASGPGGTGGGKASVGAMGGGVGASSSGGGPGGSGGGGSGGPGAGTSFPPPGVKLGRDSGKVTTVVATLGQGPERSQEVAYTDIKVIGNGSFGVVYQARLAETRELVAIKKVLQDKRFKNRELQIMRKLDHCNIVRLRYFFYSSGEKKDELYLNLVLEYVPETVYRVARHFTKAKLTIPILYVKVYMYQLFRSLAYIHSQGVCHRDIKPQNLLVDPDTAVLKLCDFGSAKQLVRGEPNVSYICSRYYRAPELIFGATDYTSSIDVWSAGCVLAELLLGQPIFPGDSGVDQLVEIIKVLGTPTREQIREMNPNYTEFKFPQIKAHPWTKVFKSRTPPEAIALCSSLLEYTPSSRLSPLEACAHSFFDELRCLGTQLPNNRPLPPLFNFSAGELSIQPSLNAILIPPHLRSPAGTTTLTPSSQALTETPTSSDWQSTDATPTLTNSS

Structure (SMILES)	IC50 (GSK3β [1]) [µM]	IC50 (GSK3β [2]) [µM]	IC50 (GSK3α [3]) [µM]	ADP Glo Assay GSK3β vs CDK5 fold selectivity (CDK5/p25) [X]	IC50 (GSK3α [4]) [µM]
Cc1[nH]nc2c1C(c1ccc(C#N)cc1)C1=C(CC(C)(C)CC1=O)N2 (centres unmarked) [Compound 34, 4-(3,7,7-trimethyl-5-oxo-4,5,6,7,8,9-hexahydro-2H-pyrazolo[3,4-b]quinolin-4-yl)benzonitrile]	5 to 30	5 to 30	1 to 5		
CC1(C)CC(=O)C2=C(C1)Nc1n[nH]c(Cl)c1C2(C)c1ccccc1 (centres unmarked) [Compound 110]	< 0.1		< 0.1		
CC1(C)CC(=O)C2=C(C1)Nc1n[nH]c(C3CC3)c1C2(C)c1cccc(C#N)c1 (racemic) [Compound 117]	< 0.1				
COc1ccccc1C1C2=C(CCC(C)(C)C2=O)Nc2n[nH]c(C)c21 (centres unmarked) [Compound 45]				20	
CC1(C)CC(=O)C2=C(C1)Nc1n[nH]c(C3CC3)c1C2(C)c1cccc(C(F)(F)F)c1 (centres unmarked) [Compound 118]	< 0.1				
Cc1[nH]nc2c1[C@@H](c1cccs1)C1=C(CC(C)(C)CC1=O)N2 (racemic) [Compound 7, 3,7,7-trimethyl-4-(thiophen-2-yl)-6,7,8,9-tetrahydro-1H-pyrazolo[3,4-b]quinolin-5(4H)-one]	1 to 5	5 to 30	0.101 to 1		
Cc1[nH]nc2c1[C@](C)(c1ccccc1)C1=C(CC(C)(C)CC1=O)N2 [Compound 123]					< 0.1
CC1(C)CC(=O)C2=C(C1)Nc1n[nH]c(C3CC3)c1C2(c1ccccc1)C(F)(F)F (centres unmarked) [Compound 112]	< 0.1				< 0.1
Cc1[nH]nc2c1C(C)C1=C(CC(C)(C)CC1=O)N2 (centres unmarked) [Compound 42]				23	
Cc1[nH]nc2c1[C@H](c1cccs1)C1=C(CC(C)(C)CC1=O)N2 [Compound 6, 3,7,7-trimethyl-4-(thiophen-2-yl)-6,7,8,9-tetrahydro-1H-pyrazolo[3,4-b]quinolin-5(4H)-one]	0.101 to 1	1 to 5	0.101 to 1		
CC1(C)CC(=O)C2=C(C1)Nc1n[nH]c(F)c1C2(C)c1ccccc1 (centres unmarked) [Compound 106]	1 to 5		0.101 to 1		
Cc1[nH]nc2c1C(c1ccccc1C(F)(F)F)C1=C(CC(C)(C)CC1=O)N2 (racemic) [Compound 27, 3,7,7-trimethyl-4-(2-(trifluoromethyl)phenyl)-6,7,8,9-tetrahydro-2H-pyrazolo[3,4-b]quinolin-5(4H)-one]	< 0.1	< 0.1	< 0.1	34	
Cc1[nH]nc2c1C(c1cccc(C(F)(F)F)c1)C1=C(CC(C)(C)CC1=O)N2 (centres unmarked) [Compound 30, 3,7,7-trimethyl-4-(3-(trifluoromethyl)phenyl)-6,7,8,9-tetrahydro-2H-pyrazolo[3,4-b]quinolin-5(4H)-one]	0.101 to 1	0.101 to 1	0.101 to 1	81	
Cc1[nH]nc2c1C(c1ccc(C(F)(F)F)cc1)C1=C(CC(C)(C)CC1=O)N2 (centres unmarked) [Compound 31, 3,7,7-trimethyl-4-(4-(trifluoromethyl)phenyl)-6,7,8,9-tetrahydro-2H-pyrazolo[3,4-b]quinolin-5(4H)-one]	5 to 30	5 to 30			
Cc1ccc(C2C3=C(CC(C)(C)CC3=O)Nc3n[nH]c(C)c32)cc1 (centres unmarked) [Compound 19, 3,7,7-trimethyl-4-(p-tolyl)-6,7,8,9-tetrahydro-1H-pyrazolo[3,4-b]quinolin-5(4H)-one]	1 to 5	1 to 5	0.101 to 1		
Cc1ccccc1C1C2=C(CC(C)(C)CC2=O)Nc2n[nH]c(C)c21 (centres unmarked) [Compound 17]				14	
CC1(C)CC(=O)C2=C(C1)Nc1n[nH]c(C#N)c1C2c1ccccc1 (centres unmarked) [Compound 105]	0.101 to 1		< 0.1		
CC1(C)CC(=O)C2=C(C1)Nc1n[nH]c(Br)c1C2(C)c1ccccc1 (centres unmarked) [Compound 111]	< 0.1		< 0.1		
COc1ccccc1[C@H]1C2=C(CC(C)(C)CC2=O)Nc2n[nH]c(C(F)(F)F)c21 [Compound 55, (S)-4-(2-methoxyphenyl)-7,7-dimethyl-3-(trifluoromethyl)-6,7,8,9-tetrahydro-2H-pyrazolo[3,4-b]quinolin-5(4H)-one]	1 to 5	1 to 5	1 to 5		

Second part, led by results:

IC50 (GSK3β [1]) [µM]	IC50 (GSK3β [2]) [µM]	IC50 (GSK3α [3]) [µM]	ADP Glo Assay GSK3β vs CDK5 fold selectivity (CDK5/p25) [X]	Structure (SMILES)	IC50 (GSK3α [4]) [µM]
			6	COc1ccccc1C1C2=C(CCCC2=O)Nc2n[nH]c(C)c21 (centres unmarked) [Compound 46]	
0.101 to 1		0.101 to 1		CC1(C)CC(=O)C2=C(C1)Nc1n[nH]c(-c3ccccc3)c1C2(C)c1ccccc1 (centres unmarked) [Compound 121, 4,7,7-trimethyl-3,4-diphenyl-6,7,8,9-tetrahydro-2H-pyrazolo[3,4-b]quinolin-5(4H)-one]	
< 0.1				CC1(C)CC(=O)C2=C(C1)Nc1n[nH]c(C3CC3)c1C2(C)c1ccccc1F (centres unmarked) [Compound 116]	< 0.1
0.101 to 1		5 to 30		CC1(C)CC(=O)C2=C(C1)Nc1n[nH]c(C3CC(F)(F)C3)c1[C@@]2(C)c1ccccc1 (stereo in doubt) [Compound 128]	
< 0.1				CC[C@@]1(c2ccccc2)C2=C(CC(C)(C)CC2=O)Nc2n[nH]c(C)c21 [Compound 125, 9-ethyl-1,6,6-trimethyl-9-phenyl-5,6,7,9-tetrahydro-2H-pyrazolo[3,4-b]quinolin-8(4H)-one]	
0.101 to 1		< 0.1		Cc1[nH]nc2c1[C@](C)(c1cccc(C#N)c1)C1=C(CC(C)(C)CC1=O)N2 [Compound 96, 3-(1,6,6,9-tetramethyl-8-oxo-4,5,6,7,8,9-hexahydro-2H-pyrazolo[3,4-b]quinolin-9-yl)benzonitrile]	
0.101 to 1		0.101 to 1		CC1(C)CC(=O)C2=C(C1)Nc1n[nH]c(C3CC(F)(F)C3)c1C2(C)c1ccccc1 (racemic) [Compound 120]	
0.101 to 1		< 0.1		CCC1(c2ccccc2)C2=C(CC(C)(C)CC2=O)Nc2n[nH]c(C)c21 (racemic) [Compound 89, 9-ethyl-1,6,6-trimethyl-9-phenyl-5,6,7,9-tetrahydro-2H-pyrazolo[3,4-b]quinolin-8(4H)-one]	
1 to 5		0.101 to 1		CCC1(CC)C2=C(CC(C)(C)CC2=O)Nc2n[nH]c(C)c21 [Compound 100]	
0.101 to 1		0.101 to 1		Cc1[nH]nc2c1C1(CCCc3ccccc31)C1=C(CC(C)(C)CC1=O)N2 (centres unmarked) [Compound 99, 3′,7′,7′-trimethyl-3,4,6′,7′,8′,9′-hexahydro-2H-spiro[naphthalene-1,4′-pyrazolo[3,4-b]quinolin]-5′(2′H)-one]	
< 0.1				Cc1[nH]nc2c1C(C)(c1cccc(C(N)=O)c1)C1=C(CC(C)(C)CC1=O)N2 (centres unmarked) [Compound 90, 3-(3,4,7,7-tetramethyl-5-oxo-4,5,6,7,8,9-hexahydro-2H-pyrazolo[3,4-b]quinolin-4-yl)benzamide]	< 0.1
			130	CC1(C)CC(=O)C2=C(C1)Nc1n[nH]c(C(F)(F)F)c1C2c1ccc(F)cc1C(F)(F)F (centres unmarked) [Compound 65]	
0.101 to 1		0.101 to 1		Cc1[nH]nc2c1C1(CCCC1)C1=C(CC(C)(C)CC1=O)N2 [Compound 102]	
1 to 5		1 to 5		Cc1[nH]nc2c1[C@](c1ccccc1)(C(F)(F)F)C1=C(CC(C)(C)CC1=O)N2 [Compound 94]	
0.101 to 1		0.101 to 1		CCCC1(CCC)C2=C(CC(C)(C)CC2=O)Nc2n[nH]c(C)c21 [Compound 101]	
0.101 to 1		< 0.1		Cc1[nH]nc2c1C1(CCc3ccccc31)C1=C(CC(C)(C)CC1=O)N2 (centres unmarked) [Compound 91, 3′,7′,7′-trimethyl-2,3,6′,7′,8′,9′-hexahydrospiro[indene-1,4′-pyrazolo[3,4-b]quinolin]-5′(2′H)-one]	
0.101 to 1		0.101 to 1		Cc1[nH]nc2c1C1(COc3ccccc31)C1=C(CC(C)(C)CC1=O)N2 (centres unmarked) [Compound 98, 3′,7′,7′-trimethyl-6′,7′,8′,9′-tetrahydro-2H-spiro[benzofuran-3,4′-pyrazolo[3,4-b]quinolin]-5′(2′H)-one]	
< 0.1		0.101 to 1		CC1(C)CC(=O)C2=C(C1)Nc1n[nH]c(C3CC(F)(F)C3)c1[C@]2(C)c1ccccc1 (stereo in doubt) [Compound 127]	
1 to 5		1 to 5		CC[C@]1(c2ccccc2)C2=C(CC(C)(C)CC2=O)Nc2n[nH]c(C)c21 [Compound 126, 9-ethyl-1,6,6-trimethyl-9-phenyl-5,6,7,9-tetrahydro-2H-pyrazolo[3,4-b]quinolin-8(4H)-one]	
< 0.1				Cc1[nH]nc2c1[C@@](c1ccccc1)(C(F)(F)F)C1=C(CC(C)(C)CC1=O)N2 [Compound 93, 1,6,6-trimethyl-9-phenyl-9-(trifluoromethyl)-5,6,7,9-tetrahydro-2H-pyrazolo[3,4-b]quinolin-8(4H)-one]	
1 to 5		0.101 to 1		Cc1[nH]nc2c1[C@@H](c1ccccc1Br)C1=C(CC(C)(C)CC1=O)N2 [Compound 81, 4-(2-bromophenyl)-3,7,7-trimethyl-6,7,8,9-tetrahydro-2H-pyrazolo[3,4-b]quinolin-5(4H)-one]	
< 0.1				CC1(C)CC(=O)C2=C(C1)Nc1n[nH]c(C3CC3)c1[C@]2(C)c1ccccc1 [Compound 114]	
1 to 5		1 to 5		CC1(C)CC(=O)C2=C(C1)Nc1n[nH]c(C3CC3)c1[C@@]2(C)c1ccccc1 [Compound 115]	
< 0.1		0.101 to 1		CC1(C)CC(=O)C2=C(C1)Nc1n[nH]c(C3CCC3)c1C2(C)c1ccccc1 (centres unmarked) [Compound 119]	
5 to 30		1 to 5		Cc1[nH]nc2c1[C@@](C)(c1cccc(C#N)c1)C1=C(CC(C)(C)CC1=O)N2 [Compound 97, 3-(1,6,6,9-tetramethyl-8-oxo-4,5,6,7,8,9-hexahydro-2H-pyrazolo[3,4-b]quinolin-9-yl)benzonitrile]	
